# The supplement of paper PMC11208160
# Test: recombinant UMI read abundance after kanamycin selection (control-corrected) (log10(CPM+1)); higher = more efficient recombination; extreme values may be limits of the assay; sequences stand for … in AGTGCAGAGAAAATCGGCCAGTTTTCTCTGCCTGCAGTCCGCATGCCGTGGGACCCCTTGGGTTCTAACCTGTTGCCTAGATTTATGCAGCGGACTGCCTTTCTCCCAAAGTGATAAACCGG…AGGTTGGTTTCACT; site = the 11-nt donor
# Outline: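 Under IPTG (0.07 mM) plus kanamycin, or without selection, Escherichia coli carrying a UMI-tagged donor and donor-binding-loop pair library and a target plasmid for the IS621 bridge recombinase were plated in two replicates. Recombinant UMIs were PCR-amplified across the donor–target junction and sequenced. Counts were converted to CPM, averaged over replicates, scaled by control-derived factors and reported as log10(CPM+1).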
# 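Further: IS621 bridge recombinase in Escherichia coli cells against a fixed T5 target plasmid.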
row,Sequence,recombinant UMI read abundance (log10)
1,CTAGTATCATGGACCGGTTTTCCCGGTAATCCGTATTTGAA (site CTAGTATCTGT),1.91
2,CTAGTATCATGGACCGGTTTTCCCGGTAATCCGTATTTGAA (site CTAGTATCTTT),2.92
3,CTAGTATCATGGACCGGTTTTCCCGGTAATCCGTATTTGAG (site CTAGTATCTAT),2.35
4,CTAGTATCATGGACCGGTTTTCCCGGTAATCCGTATTTGAG (site CTAGTATCTCT),2.61
5,CTAGTATCATGGACCGGTTTTCCCGGTAATCCGTATTTGAG (site CTAGTATCTGT),1.68
6,CTAGTATCATGGACCGGTTTTCCCGGTAATCCGTATTTGAG (site CTAGTATCTTT),2.29
7,CTAGTATCATGGACCGGTTTTCCCGGTAATCCGTATTTGTG (site CTAGTATCTCA),2.97
8,CTAGTATCATGGACCGGTTTTCCCGGTAATCCGTATTTGTG (site CTAGTATCTGT),0
9,CTAGTCACATGGACCGGTTTTCCCGGTAATCCGTATTTGGG (site CAAGTCACTCC),0.00773
10,CTAGTCACATGGACCGGTTTTCCCGGTAATCCGTATTTGGG (site CCAGTCACTCC),0.0093
11,CTAGTCACATGGACCGGTTTTCCCGGTAATCCGTATTTGGG (site CGAGTCACTCC),0.00732
12,CTAGTCACATGGACCGGTTTTCCCGGTAATCCGTATTTGGG (site CTAGTCACTCC),0.00791
13,CTAGTGCCATGGACCGGTTTTCCCGGTAATCCGTATTTGAC (site CTAGTATCTGT),0.948
14,CTAGTGCCATGGACCGGTTTTCCCGGTAATCCGTATTTGAC (site CTAGTGCCTGT),0.95
15,CTAGTTTCATGGACCGGTTTTCCCGGTAATCCGTATTTGAC (site CTAGTATCTGT),2.19
16,CTAGTTTCATGGACCGGTTTTCCCGGTAATCCGTATTTGAC (site CTAGTCTCTGT),1.74
17,CTAGTTTCATGGACCGGTTTTCCCGGTAATCCGTATTTGAC (site CTAGTGTCTGT),0
18,CTAGTTTCATGGACCGGTTTTCCCGGTAATCCGTATTTGAC (site CTAGTTTCTGT),2.05
19,CTATAACCATGGACCGGTTTTCCCGGTAATCCGTATTTGGA (site CTATAACCTTC),0.0031
20,CTATCATCATGGACCGGTTTTCCCGGTAATCCGTATTTGCT (site CAATCATCTAG),0.957
21,CTATCATCATGGACCGGTTTTCCCGGTAATCCGTATTTGCT (site CCATCATCTAG),0.932
22,CTATCATCATGGACCGGTTTTCCCGGTAATCCGTATTTGCT (site CGATCATCTAG),0
23,CTATCATCATGGACCGGTTTTCCCGGTAATCCGTATTTGCT (site CTATCATCTAG),2.06
24,CTATCGACATGGACCGGTTTTCCCGGTAATCCGTATTTGTT (site CAATCGACTAA),0.0124
25,CTATCGACATGGACCGGTTTTCCCGGTAATCCGTATTTGTT (site CCATCGACTAA),0.0135

row,Sequence,recombinant UMI read abundance (log10)
1,CTATCGACATGGACCGGTTTTCCCGGTAATCCGTATTTGTT (site CGATCGACTAA),0.0084
2,CTATCGACATGGACCGGTTTTCCCGGTAATCCGTATTTGTT (site CTATCGACTAA),1.1
3,CTATGACCATGGACCGGTTTTCCCGGTAATCCGTATTTGAG (site CTATGACCTCT),0.00436
4,CTATGATCATGGACCGGTTTTCCCGGTAATCCGTATTTGAC (site CTAGTATCTGT),0
5,CTATGATCATGGACCGGTTTTCCCGGTAATCCGTATTTGAC (site CTATGATCTGT),2.73
6,CTATGCACATGGACCGGTTTTCCCGGTAATCCGTATTTGTA (site ATATGCACTTA),0.00544
7,CTATGCACATGGACCGGTTTTCCCGGTAATCCGTATTTGTA (site CTATGCACTTA),1.82
8,CTATGCACATGGACCGGTTTTCCCGGTAATCCGTATTTGTA (site GTATGCACTTA),0.00869
9,CTATGCACATGGACCGGTTTTCCCGGTAATCCGTATTTGTA (site TTATGCACTTA),0.013
10,CTATGTTCATGGACCGGTTTTCCCGGTAATCCGTATTTGTC (site CTATGTTCTGA),2.29
11,CTATTATCATGGACCGGTTTTCCCGGTAATCCGTATTTGAA (site CTATTATCTTT),1.79
12,CTATTATCATGGACCGGTTTTCCCGGTAATCCGTATTTGGC (site CTAGTATCTGT),0
13,CTATTATCATGGACCGGTTTTCCCGGTAATCCGTATTTGGC (site CTATTATCTGC),2.56
14,CTATTTCCATGGACCGGTTTTCCCGGTAATCCGTATTTGCG (site CTATTTCCTCG),0.264
15,CTCAAATCATGGACCGGTTTTCCCGGTAATCCGTATTTGAA (site CTCAAATCTTT),0.789
16,CTCAATCCATGGACCGGTTTTCCCGGTAATCCGTATTTGTT (site CGGAATCCTAA),0
17,CTCAATCCATGGACCGGTTTTCCCGGTAATCCGTATTTGTT (site CTCAATCCTAA),1.41
18,CTCAATGCATGGACCGGTTTTCCCGGTAATCCGTATTTGGG (site CTCAATGCTCC),0
19,CTCAGATCATGGACCGGTTTTCCCGGTAATCCGTATTTGCA (site CTCAGATCTTG),1.82
20,CTCCAGTCATGGACCGGTTTTCCCGGTAATCCGTATTTGAG (site CTCCAGTCTCT),0.842
21,CTCCCAACATGGACCGGTTTTCCCGGTAATCCGTATTTGAG (site CTCCCAACTCT),0.687
22,CTCCCAACATGGACCGGTTTTCCCGGTAATCCGTATTTGAG (site CTCCCCACTCT),0.00702
23,CTCCCAACATGGACCGGTTTTCCCGGTAATCCGTATTTGAG (site CTCCCGACTCT),0.0167
24,CTCCCAACATGGACCGGTTTTCCCGGTAATCCGTATTTGAG (site CTCCCTACTCT),0.00578
25,CTCCCTCCATGGACCGGTTTTCCCGGTAATCCGTATTTGAG (site CTCCCTACTCT),0.00615

row,Sequence,recombinant UMI read abundance (log10)
1,CTCCCTCCATGGACCGGTTTTCCCGGTAATCCGTATTTGAG (site CTCCCTCCTCT),0.0401
2,CTCCCTCCATGGACCGGTTTTCCCGGTAATCCGTATTTGAG (site CTCCCTGCTCT),0.009
3,CTCCCTCCATGGACCGGTTTTCCCGGTAATCCGTATTTGAG (site CTCCCTTCTCT),0.0108
4,CTCCTAACATGGACCGGTTTTCCCGGTAATCCGTATTTGGA (site CTACTAACTTC),0.00356
5,CTCCTAACATGGACCGGTTTTCCCGGTAATCCGTATTTGGA (site CTCCTAACTTC),0.655
6,CTCCTAACATGGACCGGTTTTCCCGGTAATCCGTATTTGGA (site CTGCTAACTTC),0.0178
7,CTCCTAACATGGACCGGTTTTCCCGGTAATCCGTATTTGGA (site CTTCTAACTTC),0.0149
8,CTCCTTACATGGACCGGTTTTCCCGGTAATCCGTATTTGAG (site CTCCATACTCT),0
9,CTCCTTACATGGACCGGTTTTCCCGGTAATCCGTATTTGAG (site CTCCCTACTCT),0.00731
10,CTCCTTACATGGACCGGTTTTCCCGGTAATCCGTATTTGAG (site CTCCGTACTCT),0
11,CTCCTTACATGGACCGGTTTTCCCGGTAATCCGTATTTGAG (site CTCCTTACTCT),0.201
12,CTCGACACATGGACCGGTTTTCCCGGTAATCCGTATTTGGA (site CTCGACACTTC),0.942
13,CTCGCTACATGGACCGGTTTTCCCGGTAATCCGTATTTGAG (site CTCACTACTCT),0.085
14,CTCGCTACATGGACCGGTTTTCCCGGTAATCCGTATTTGAG (site CTCCCTACTCT),0.00726
15,CTCGCTACATGGACCGGTTTTCCCGGTAATCCGTATTTGAG (site CTCGCTACTCT),1.03
16,CTCGCTACATGGACCGGTTTTCCCGGTAATCCGTATTTGAG (site CTCTCTACTCT),0.139
17,CTCGGCCCATGGACCGGTTTTCCCGGTAATCCGTATTTGTT (site CACGGCCCTAA),0.0311
18,CTCGGCCCATGGACCGGTTTTCCCGGTAATCCGTATTTGTT (site CCCGGCCCTAA),0.0244
19,CTCGGCCCATGGACCGGTTTTCCCGGTAATCCGTATTTGTT (site CGCGGCCCTAA),0.0316
20,CTCGGCCCATGGACCGGTTTTCCCGGTAATCCGTATTTGTT (site CTCGGCCCTAA),0.0107
21,CTCGGCGCATGGACCGGTTTTCCCGGTAATCCGTATTTGCC (site CTCGGCGCTGG),2.12
22,CTCGGGCCATGGACCGGTTTTCCCGGTAATCCGTATTTGTG (site CTCGGGCCTCA),0
23,CTCGTATCATGGACCGGTTTTCCCGGTAATCCGTATTTGTC (site CTAGTATCTGT),0
24,CTCGTATCATGGACCGGTTTTCCCGGTAATCCGTATTTGTC (site CTCGTATCTGA),2.69
25,CTCGTCCCATGGACCGGTTTTCCCGGTAATCCGTATTTGTA (site CTCGTCCCTTA),1.66
